Measured values published in patent publication US11312713B2, “Imidazo[4,5-C]quinoline derivatives as LRRK2 inhibitors” (Pfizer Inc., priority 2017, dated 2022).
Where two headings read alike, the source gives them in different places.

Experiments:
mutant G2019S LRRK2 = mutant G2019S LRRK2 (Homo sapiens (Human), UniProt Q5S007, G2019S); assay: LRRK2 kinase assay (LanthaScreen), G2019S mutant; format: biochemical; details: G2019S mutant LRRK2, read-out: LRRK2, G2019S IC50
Method: (§1) LRRK2 kinase activity was measured using Lantha Screen technology from Invitrogen. GST-tagged truncated LRRK2 from Invitrogen (Cat #PV4874) was incubated with a fluorescein-labeled peptide substrate based upon ezrin/radixin/moesin (ERM), also known as LRRKtide (Invitrogen cat #PR8976A), in the presence of a dose response of compound. Upon completion, the assay was stopped and detected with a terbium labeled anti-phospho-ERM antibody (Invitrogen, cat #PR8975A). […] Using Echo acoustic dispensing, 60 nL of compound was transferred to a low volume Corning 384-well assay plate. 3 μL of a working solution of substrate (200 nM LRRKtide, 2 mM ATP) prepared in assay buffer (50 mM HEPES, pH 7.5, 3 mM MgCl2, with 2 mM DTT and 0.01% Brij35 added fresh) was added to the 60 nL compound assay plate. The kinase reaction was started with 3 μL of a working solution of LRRK2 enzyme at a concentration of 4 μg/m L. The final reaction concentrations were 100 nM LRRKtide, 1 mM ATP, 2 μg/mL LRRK2 enzyme and a compound dose response with a top dose of 3 μM. The reaction was allowed to progress at room temperature for 30 minutes and then stopped with the addition of 6 μL of detection buffer (20 mM Tris pH 7.6, 0.01% NP-40, 6 mM EDTA with 2 nM terbium labeled antiphospho-ERM). […] All final concentrations of substrate ATP and enzyme were the same.

[1] = biological target: LRRK2, WT (GST-tagged truncated LRRK2) (Homo sapiens, UniProt Q5S007); assay: LRRK2 kinase assay (LanthaScreen), wild type; format: biochemical
Method: as §1

[2] = data obtained using the formate salt of the Example
[3] = wild type LRRK2, data obtained using the formate salt of the Example
[4] = LanthaScreen, LRRKtide substrate
[5] = wild type LRRK2, LanthaScreen, LRRKtide substrate

mutant G2019S LRRK2, sequence (Q5S007 whole entry G2019S, the tested form may be a part): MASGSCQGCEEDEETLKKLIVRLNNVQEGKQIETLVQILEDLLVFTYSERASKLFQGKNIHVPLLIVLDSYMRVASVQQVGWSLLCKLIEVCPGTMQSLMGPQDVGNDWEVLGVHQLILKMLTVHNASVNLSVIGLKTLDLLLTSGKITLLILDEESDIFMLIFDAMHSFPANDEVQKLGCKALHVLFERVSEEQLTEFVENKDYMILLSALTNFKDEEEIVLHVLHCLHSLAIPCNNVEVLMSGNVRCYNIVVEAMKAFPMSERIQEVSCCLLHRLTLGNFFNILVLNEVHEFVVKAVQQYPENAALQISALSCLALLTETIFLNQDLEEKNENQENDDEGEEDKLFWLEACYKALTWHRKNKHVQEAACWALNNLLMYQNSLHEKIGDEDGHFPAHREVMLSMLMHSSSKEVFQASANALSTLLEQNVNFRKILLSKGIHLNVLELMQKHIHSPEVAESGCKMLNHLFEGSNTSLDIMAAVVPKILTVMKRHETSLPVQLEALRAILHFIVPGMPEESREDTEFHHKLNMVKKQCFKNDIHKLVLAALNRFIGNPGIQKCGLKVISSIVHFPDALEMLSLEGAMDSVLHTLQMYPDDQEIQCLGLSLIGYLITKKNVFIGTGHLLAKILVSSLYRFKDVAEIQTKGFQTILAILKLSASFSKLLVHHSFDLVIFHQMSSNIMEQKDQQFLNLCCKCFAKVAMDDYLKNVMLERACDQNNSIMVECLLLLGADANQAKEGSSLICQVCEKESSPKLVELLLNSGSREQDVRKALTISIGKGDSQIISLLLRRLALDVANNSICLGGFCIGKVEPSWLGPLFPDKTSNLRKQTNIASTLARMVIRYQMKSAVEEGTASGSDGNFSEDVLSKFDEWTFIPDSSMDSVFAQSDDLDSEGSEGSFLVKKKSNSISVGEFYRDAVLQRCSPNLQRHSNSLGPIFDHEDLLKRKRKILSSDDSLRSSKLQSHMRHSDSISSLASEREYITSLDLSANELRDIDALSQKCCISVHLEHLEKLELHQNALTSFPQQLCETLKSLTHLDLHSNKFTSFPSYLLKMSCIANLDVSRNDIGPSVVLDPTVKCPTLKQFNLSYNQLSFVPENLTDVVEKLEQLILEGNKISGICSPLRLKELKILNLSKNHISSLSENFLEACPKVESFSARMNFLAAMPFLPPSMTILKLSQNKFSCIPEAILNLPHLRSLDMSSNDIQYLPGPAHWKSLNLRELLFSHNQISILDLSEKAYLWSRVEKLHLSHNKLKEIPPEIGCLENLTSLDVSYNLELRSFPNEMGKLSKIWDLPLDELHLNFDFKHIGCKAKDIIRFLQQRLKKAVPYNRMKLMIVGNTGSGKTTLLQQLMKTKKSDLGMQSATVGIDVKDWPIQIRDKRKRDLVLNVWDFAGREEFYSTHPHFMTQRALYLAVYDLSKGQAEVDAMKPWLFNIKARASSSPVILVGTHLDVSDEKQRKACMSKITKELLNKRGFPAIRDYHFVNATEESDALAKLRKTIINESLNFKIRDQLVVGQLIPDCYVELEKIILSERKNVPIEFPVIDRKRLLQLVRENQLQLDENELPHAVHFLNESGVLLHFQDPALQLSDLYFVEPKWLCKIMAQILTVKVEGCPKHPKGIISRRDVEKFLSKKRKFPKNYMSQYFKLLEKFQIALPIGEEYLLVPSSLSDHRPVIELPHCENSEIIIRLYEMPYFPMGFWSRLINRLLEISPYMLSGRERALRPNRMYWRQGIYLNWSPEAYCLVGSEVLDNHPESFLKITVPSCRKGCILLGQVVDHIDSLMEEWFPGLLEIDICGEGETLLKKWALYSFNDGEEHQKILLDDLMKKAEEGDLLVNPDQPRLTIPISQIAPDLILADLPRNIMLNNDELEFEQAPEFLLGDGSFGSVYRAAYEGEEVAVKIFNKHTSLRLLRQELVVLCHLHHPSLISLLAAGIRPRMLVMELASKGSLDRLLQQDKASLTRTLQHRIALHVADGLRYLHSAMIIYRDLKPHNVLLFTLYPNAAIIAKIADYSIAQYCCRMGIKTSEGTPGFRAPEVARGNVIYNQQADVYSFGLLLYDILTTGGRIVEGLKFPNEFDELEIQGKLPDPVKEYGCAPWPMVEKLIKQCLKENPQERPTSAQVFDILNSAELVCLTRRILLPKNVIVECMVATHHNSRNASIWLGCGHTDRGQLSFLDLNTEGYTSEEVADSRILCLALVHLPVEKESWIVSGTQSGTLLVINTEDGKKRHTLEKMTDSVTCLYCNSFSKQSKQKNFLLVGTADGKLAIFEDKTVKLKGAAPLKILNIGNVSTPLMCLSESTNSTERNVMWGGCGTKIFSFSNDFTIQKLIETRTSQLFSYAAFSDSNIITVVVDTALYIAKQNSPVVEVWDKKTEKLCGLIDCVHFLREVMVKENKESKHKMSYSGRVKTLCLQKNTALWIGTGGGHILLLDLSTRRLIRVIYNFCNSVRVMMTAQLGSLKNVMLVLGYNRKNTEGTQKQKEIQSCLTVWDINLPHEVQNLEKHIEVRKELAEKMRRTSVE

Row | Compound | IC50 (mutant G2019S LRRK2; [2]) [nM] | IC50 [1, 3] [nM] | IC50 (mutant G2019S LRRK2; [4]) [nM] | IC50 [1, 5] [nM] | IC50 [1] [nM]
1 | Cc1cc(Cc2nc3cnc4ccc(C#N)cc4c3n2[C@@H]2CC[C@H](F)C2)no1 (racemic) [Example 68, 1-[cis-3-fluorocyclopentyl]-2-[(5-methyl-1,2-oxazol-3-yl)methyl]-1H-imidazo[4,5-c]quinoline-8-carbonitrile] | 12.3 | 8.32 | – | – | –
2 | N#Cc1ccc2ncc3nc(Cc4nc5ccccc5o4)n([C@@H]4CC[C@H](F)C4)c3c2c1 (relative stereo) [Example 65, 2-(1,3-benzoxazol-2-ylmethyl)-1-[cis-3-fluorocyclopentyl]-1H-imidazo[4,5-c]quinoline-8-carbonitrile] | – | – | 6.33 | 8.56 | –
3 | Cc1cnc(Cc2nc3cnc4ccc(Cl)cc4c3n2[C@@H]2CC[C@H](F)C2)cn1 (relative stereo) [Example 77, 8-chloro-1-[cis-3-fluorocyclopentyl]-2-[(5-methylpyrazin-2-yl)methyl]-1H-imidazo[4,5-c]quinoline] | – | – | 11.8 | 13 | –
4 | Cc1cnn(Cc2nc3cnc4ccc(C#N)cc4c3n2C2CN(C)CC2(F)F)n1 (single isomer, unassigned) [Example 4, 1-(4,4-Difluoro-1-methylpyrrolidin-3-yl)-2-[(4-methyl-2H-1,2,3-triazol-2-yl)methyl]-1H-imidazo[4,5-c]quinoline-8-carbonitrile] | – | – | 3.31 | 17.6 | –
5 | N#CCC1CC(n2c(C3CCC3)nc3cnc4ccc(Cl)cc4c32)CCO1 (single isomer, unassigned) [Example 11, [cis-4-(8-Chloro-2-cyclobutyl-1H-imidazo[4,5-c]quinolin-1-yl)tetrahydro-2H-pyran-2-yl]acetonitrile] | – | – | 5.06 | 18 | –
6 | Cc1cnc(C(O)c2nc3cnc4ccc(Cl)cc4c3n2[C@@H]2CCO[C@H](C)C2)cn1 (single isomer, unassigned) [Example 14] | – | – | 12.8 | – | 14.2
7 | Cc1cnc(C(O)c2nc3cnc4ccc(Cl)cc4c3n2[C@@H]2CCO[C@H](C)C2)cn1 (single isomer, unassigned) [Example 15] | – | – | 18.4 | 16.3 | –
8 | CCc1nc2cnc3ccc(Cl)cc3c2n1[C@@H]1CCO[C@H](CC#N)C1 [Example 1, [(2S,4R)-4-(8-Chloro-2-ethyl-1H-imidazo[4,5-c]quinolin-1-yl)tetrahydro-2H-pyran-2-yl]acetonitrile] | – | – | 8.87 | 10.2 | –
9 | Cc1nn2cc(Cc3nc4cnc5ccc(F)cc5c4n3[C@@H]3CCO[C@H](C)C3)nc2s1 [Example 28, 8-fluoro-2-[(2-methylimidazo[2,1-b][1,3,4]thiadiazol-6-yl)methyl]-1-[(2R,4R)-2-methyltetrahydro-2H-pyran-4-yl]-1H-imidazo[4,5-c]quinoline] | – | – | 4.59 | 7.18 | –
10 | Cc1cnc(Cc2nc3cnc4ccc(C(F)(F)F)cc4c3n2[C@@H]2CCO[C@H](C)C2)cn1 [Example 29, 2-[(5-methylpyrazin-2-yl)methyl]-1-[(2R,4R)-2-methyltetrahydro-2H-pyran-4-yl]-8-(trifluoromethyl)-1H-imidazo[4,5-c]quinoline] | – | – | 4.13 | 6.47 | –
11 | C[C@@H]1C[C@H](n2c(C3CCCC3)nc3cnc4ccc(C#N)cc4c32)CCO1 [Example 30, 2-cyclopentyl-1-[(2R,4R)-2-methyltetrahydro-2H-pyran-4-yl]-1H-imidazo[4,5-c]quinoline-8-carbonitrile] | – | – | 22 | 20.6 | –
12 | Cc1nc2cnc3ccc(Cl)cc3c2n1C1CCOC(CC#N)C1 (stereo not drawn) [Example 31, [cis-4-(8-chloro-2-methyl-1H-imidazo[4,5-c]quinolin-1-yl)tetrahydro-2H-pyran-2-yl]acetonitrile] | – | – | 8.67 | 7.86 | –
13 | Cc1nc(Cc2nc3cnc4ccc(C#N)cc4c3n2C2CN(C)CC2(F)F)no1 (centres unmarked) [Example 32, 1-(4,4-difluoro-1-methylpyrrolidin-3-yl)-2-[(5-methyl-1,2,4-oxadiazol-3-yl)methyl]-1H-imidazo[4,5-c]quinoline-8-carbonitrile] | – | – | 5.98 | 4.59 | –
14 | Cc1cnc(Cc2nc3cnc4ccc(C#N)cc4c3n2[C@@H]2CCN(C)C2)cn1 [Example 33, 2-[(5-methylpyrazin-2-yl)methyl]-1-[(3R)-1-methylpyrrolidin-3-yl]-1H-imidazo[4,5-c]quinoline-8-carbonitrile] | 6.82 | 8.35 | – | – | –
15 | Cc1nnn(Cc2nc3cnc4ccc(C#N)cc4c3n2[C@@H]2CCN(C)C2)n1 [Example 34, 1-[(3R)-1-methylpyrrolidin-3-yl]-2-[(5-methyl-2H-tetrazol-2-yl)methyl]-1H-imidazo [4,5-c]quinoline-8-carbonitrile] | – | – | 5.04 | 5.53 | –
16 | Cc1cc(Cc2nc3cnc4ccc(C#N)cc4c3n2[C@@H]2CCN(C)C2)on1 [Example 35, 2-[(3-methyl-1,2-oxazol-5-yl)methyl]-1-[(3R)-1-methylpyrrolidin-3-yl]-1H-imidazo [4,5-c]quinoline-8-carbonitrile] | – | – | 6.17 | 7.57 | –
17 | COc1cnn(Cc2nc3cnc4ccc(C#N)cc4c3n2[C@@H]2CCN(C)C2)c1 [Example 36, 2-[(4-methoxy-1H-pyrazol-1-yl)methyl]-1-[(3R)-1-methylpyrrolidin-3-yl]-1H-imidazo[4,5-c]quinoline-8-carbonitrile] | – | – | 4.63 | 5 | –
18 | Cc1nnc(Cc2nc3cnc4ccc(C#N)cc4c3n2[C@@H]2CCN(C)C2)s1 [Example 37, 1-[(3R)-1-methylpyrrolidin-3-yl]-2-[(5-methyl-1,3,4-thiadiazol-2-yl)methyl]-1H-imidazo[4,5-c]quinoline-8-carbonitrile] | – | – | 12.6 | 5.26 | –
19 | Cc1cnc(Cc2nc3cnc4ccc(C#N)cc4c3n2[C@@H]2CCN(C)C2)o1 [Example 38, 2-[(5-methyl-1,3-oxazol-2-yl)methyl]-1-[(3R)-1-methylpyrrolidin-3-yl]-1H-imidazo [4,5-c]quinoline-8-carbonitrile] | – | – | 12.9 | 7.49 | –
20 | C[C@@H]1C[C@H](n2c(Cc3cnc(C(F)(F)F)cn3)nc3cnc4ccc(C#N)cc4c32)CCO1 [Example 39, 1-[(2R,4R)-2-methyltetrahydro-2H-pyran-4-yl]-2-{[5-(trifluoromethyl)pyrazin-2-yl]methyl}-1H-imidazo[4,5-c]quinoline-8-carbonitrile] | – | – | 9.3 | 17.4 | –
21 | Cc1cc(Cc2nc3cnc4ccc(Cl)cc4c3n2[C@@H]2CCN(C)C2)ncn1 [Example 40, 8-chloro-2-[(6-methylpyrimidin-4-yl)methyl]-1-[(3R)-1-methylpyrrolidin-3-yl]-1H-imidazo[4,5-c]quinoline] | – | – | 13.9 | 9.73 | –
22 | COc1cnn(Cc2nc3cnc4ccc(C(F)(F)F)cc4c3n2[C@@H]2CCO[C@H](C)C2)c1 [Example 41, 2-[(4-methoxy-1H-pyrazol-1-yl)methyl]-1-[(2R,4R)-2-methyltetrahydro-2H-pyran-4-yl]-8-(trifluoromethyl)-1H-imidazo[4,5-c]quinoline] | – | – | 3.87 | 11.1 | –
23 | Cc1nc(Cc2nc3cnc4ccc(Cl)cc4c3n2[C@@H]2CCN(C)C2)no1 [Example 42, 8-chloro-2-[(5-methyl-1,2,4-oxadiazol-3-yl)methyl]-1-[(3R)-1-methylpyrrolidin-3-yl]-1H-imidazo[4,5-c]quinoline] | – | – | 26 | 12.9 | –
24 | Cc1nc(Cc2nc3cnc4ccc(Cl)cc4c3n2C2CN(C)CC2(F)F)no1 (centres unmarked) [Example 45, 8-chloro-1-(4,4-difluoro-1-methylpyrrolidin-3-yl)-2-[(5-methyl-1,2,4-oxadiazol-3-yl)methyl]-1H-imidazo[4,5-c]quinoline] | – | – | 5.82 | 8.13 | –
25 | Cc1cn(Cc2nc3cnc4ccc(Cl)cc4c3n2C2CCOCC2(F)F)nn1 (centres unmarked) [Example 46, 8-chloro-1-(3,3-difluorotetrahydro-2H-pyran-4-yl)-2-[(4-methyl-1H-1,2,3-triazol-1-yl)methyl]-1H-imidazo[4,5-c]quinoline] | – | – | 7.66 | 9.31 | –
26 | CN1CC(n2c(Cn3cc(C4CC4)nn3)nc3cnc4ccc(Cl)cc4c32)C(F)(F)C1 (centres unmarked) [Example 47, 8-chloro-2-[(4-cyclopropyl-1H-1,2,3-triazol-1-yl)methyl]-1-(4,4-difluoro-1-methylpyrrolidin-3-yl)-1H-imidazo[4,5-c]quinoline] | – | – | 1.42 | 2.8 | –
27 | Cc1cn(Cc2nc3cnc4ccc(Cl)cc4c3n2C2CN(C)CC2(F)F)nn1 (centres unmarked) [Example 48, 8-chloro-1-(4,4-difluoro-1-methylpyrrolidin-3-yl)-2-[(4-methyl-1H-1,2,3-triazol-1-yl)methyl]-1H-imidazo[4,5-c]quinoline] | – | – | 0.938 | 3.27 | –
28 | Cc1nnn(Cc2nc3cnc4ccc(Cl)cc4c3n2C2CN(C)CC2(F)F)n1 (centres unmarked) [Example 49, 8-chloro-1-(4,4-difluoro-1-methylpyrrolidin-3-yl)-2-[(5-methyl-2H-tetrazol-2-yl)methyl]-1H-imidazo[4,5-c]quinoline] | – | – | 1.34 | 4.48 | –
